In patent US9642835B2, “Modulators of GTPase and use in relevant treatment” (STC.UNM, priority 2010, dated 2017):

Assays:
wild-type Cdc42 = biological target: T1, wild-type Cdc42 (Homo sapiens, UniProt P60953); assay: Equilibrium binding assay of BODIPY-FL-GTP; details: 1.5 nM substrate, 1 mM MgCl2; read-out: IC50, inhibition of fluorescent GTP binding to Cdc42 wt
T1 construct: purchased Cytoskeleton
Method: Changes in GTP binding affinity (Kd) and Bmax in the presence of a given compound were measured in multiplex (Cdc42, Cdc42Q61L, Rab2, Rab7, H-Ras and H-RasG12V) and single-plex formats (Rac1, Rac1Q61L and GST-GFP). GTPases and the GST-GFP control were individually bound to glutathione beads overnight at 4° C., washed with HPSE buffer, then resuspended together or assayed individually in the same buffer containing DTT and BSA. Bound GTPases were analyzed by mixing 5 μl protein-bound beads with 2.5-100 nM BODIPY-GTP in a total volume of 10 μl and incubating with rotation at 4° C. for 90 min. DMSO controls and samples treated with 10 μM of each test compound were run in parallel. Bound fluorescent nucleotide was measured using a Cyan ADP flow cytometer. Data were converted to ASCII format using IDLeQuery, exported and analyzed using Prism (GraphPad Software, Inc., San Diego, Calif.) non-linear, one-site binding.
Wild-type GST-Cdc42 (4 μM) was bound to GSH-beads overnight at 4° C. Cdc42 on GSH-beads was depleted of nucleotide by incubating with 10 mM EDTA containing buffer for 20 min at 30° C., washing twice with NP-HPS buffer, then re-suspended in the same buffer containing 1 mM EDTA/or 1 mM MgCl2, 1 mM DTT and 0.1% BSA. […] Samples incubated at 4° C. for 45 min and binding of fluorescent nucleotide to enzyme measured using an Accuri flow cytometer. […]

[1] = biological target: His-Cdc42 binding to GST-PAK-PBD (Homo sapiens, UniProt P60953); assay: In vitro Cdc42-GTPγS formation PAK-PBD pull-down; format: biochemical; details: 10 μM inhibitor
Method: For analysis of the effect of MLS000693334 on the formation of the GTP-bound form of Cdc42 in vitro, 40 nM His-Cdc42 wt incubated (20 min at 30 C) with various concentration of GTPγS in the presence of 1 mM EDTA containing NP-HPS buffer. Reaction stopped by adding of excess amount of MgCl2. Mixture incubated with 15 μl PAK-PBD/beads (Cytoskeleton Inc., Denver, Colo.) for 1 h. Washed 2× and active Cdc42 analyzed by Western blot using mAb for Cdc42 (Cytoskeleton Inc., Denver, Colo.) and Mouse TrueBlot Ultra: Horseradish Peroxidase anti-mouse IgG (eBioscience. San Diego, Calif.) followed by ECL (Thermo Scientific, Rockford, Ill.).
For in vitro Cdc42 activation measurements, DMSO or an equal volume of SID57578341 in DMSO were incubated for 20 min at 30° C. with 40 nM His-Cdc42 protein and varying concentrations of GTPγS in 1 mM EDTA-containing buffer (NP-HPS). Further nucleotide exchange was inhibited with the addition of excess MgCl2 (60 mM final) and transfer to ice. Activated Cdc42 protein was isolated from solution by adding 15 μl GST-PAK-PBD bound glutathione beads and rotation at 4° C. for 1 h. Activated Cdc42 bound to GST-PAK-PDB was resolved by SDS-PAGE (12% gels) and analyzed by immunoblot using mAb directed against Cdc42 (Cytoskeleton, Inc.) and ECL (Thermo Scientific, Rockford, Ill.). Quantification was by densitometry.

Chain of His-Cdc42 binding to GST-PAK-PBD (P60953 whole entry): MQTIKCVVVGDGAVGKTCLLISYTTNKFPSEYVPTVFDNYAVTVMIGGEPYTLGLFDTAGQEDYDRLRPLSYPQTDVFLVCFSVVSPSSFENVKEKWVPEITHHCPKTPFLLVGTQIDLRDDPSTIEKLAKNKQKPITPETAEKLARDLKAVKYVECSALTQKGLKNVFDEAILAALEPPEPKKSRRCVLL
T1 sequence (P60953 whole entry): as above

In the case of `COc1ccc(C2CC(c3ccccc3)=NN2c2ccc(S(N)(=O)=O)cc2)cc1` (centres unmarked) [MLS000693334, 4-[3-(4-methoxyphenyl)-5-phenyl-3,4-dihydropyrazol-2-yl]benzenesulfonamide], the IC50 (wild-type Cdc42) is reported as 200 nM and the “Complex formation of active Cdc42(GTPγS) with PAK-PBD” value [1] is reported as “dramatically reduced”.
